The results in this text go back to patent US20190083460A1, “ANALGESIC COMPOUNDS” (ZENO ROYALTIES & MILESTONES, LLC, priority 2016, published 2019).

This assay relates to male ICR mice. The experiment in a line: Formalin Paw Test. Particulars: 30 mg/kg intraperitoneal; for Early Phase: early/acute phase (0-10 minutes) after 2% formalin into hind paw; for Late Phase: late/tonic phase (10-35 minutes) after 2% formalin into hind paw. The class given is in vivo. How it is done: One test compound or the vehicle was administered to each mouse in each test group (8 mice per group). Non-fasted male ICR mice weighing 23±3 g were used. Test compounds were administered at a concentration of 3 mg/kg, 10 mg/kg, 15 mg/kg, 30 mg/kg, 60 mg/kg, 100 mg/kg, 200 mg/kg or 300 mg/kg; morphine was administered at a concentration of 5 mg/kg; and acetaminophen was administered at a concentration of 200 mg/kg. The control group received the vehicle (5% DMSO/40% PEG400/20% HPbCD/Saline). After 30 or 60 minutes, a 2% formalin solution (0.02 mL) was injected into one hind paw (sub-plantar) of each mouse. Responses were measured every 5 minutes after the formalin injection for 35 minutes.
The results in Table A are for intraperitoneal administration. In Table A, ‘A’ designates <70 licks/sec, ‘B’ designates ≥70 licks/sec and <165 licks/sec, and ‘C’ designates ≥165 licks/sec.

Consider `NC1CC2(COC2)C1` [Compound I-1], for which the “Early Phase” value was “B (‘B’ designates ≥70 licks/sec and <165 licks/sec)”; the “Late Phase” value was “B (‘B’ designates ≥70 licks/sec and <165 licks/sec)”.
Turning to `NC1CCCOCC1` (stereo not shown) [Compound I-4], the “Early Phase” value is “B (‘B’ designates ≥70 licks/sec and <165 licks/sec)”; the “Late Phase” value is “C (‘C’ designates ≥165 licks/sec)”.
